Experimental data from patent publication US10800782B2, “Inhibitors of cellular metabolic processes” (Agios Pharmaceuticals, Inc., priority 2016, dated 2020).

Molecular target: T1, MAT2A (Homo sapiens, UniProt P31153)
T1 construct: His6; made in house; host or cells: SF9 insect cells
Experiment: MAT2A biochemical assay (colorimetric inorganic phosphate detection, PiColorLock)
Settings: recombinant His6-tagged MAT2A 1 μg/ml; 60 minutes preincubation at 25° C.; L-Met 80 μM, ATP 100 μM; 60 minutes reaction; read at 623 nm; read-out: MAT2A Inhibition Score
Description: In the reaction catalyzed by MAT2A enzyme, L-Met and ATP were converted to SAM, inorganic phosphate, and inorganic diphosphate. […] The concentration of malachite green phosphomolybdate produced in the detection reaction is thus directly related to the quantity of product produced by the MAT2A enzyme. Multiple commercial kits exist for this method of phosphate detection and quantification, such as PiColorLock Gold (Innova Biosciences). Typical reaction was performed in 50 μl final volume, containing buffer (Tris, pH 8.0, 50 mM KCl, 15 mM MgCl2, 300 uM EDTA, bovine serum albumin at 0.005% w/v) and 1 μg/ml MAT2A. Compounds were added in 1 μl of DMSO at the desired concentration; a typical dose response curve contained ten points with three-fold dilution between compound concentrations. […] The reaction was allowed to proceed for 60 minutes at room temperature then halted by the addition of 13 μl of PiColor Lock reagent. After a further 5 minutes of incubation at room temperature, […] of PiColor Stabilizer was added and the reactions were further incubated at 25° C. for 25 minutes. […] Recombinant MAT2A protein was expressed in SF9 insect cells and purified by metal chelate affinity chromatography, using methods well known in the art. After expression of His6-tagged MAT2A cells were disrupted by 4 passes through an M-Yl 10 Micro fluidizer (Microfluidics) set to 500 psi, and then centrifuged at 22,000 rcf for 20 min at 4° C. The supernatant was harvested and loaded at 15 cm/h on a Histrap FF 5*1 ml column (GE) which was equilibrated with 50 mM Tris, 500 mM NaCl, pH7.4. Host cell contaminants were removed by washing the column with equilibration buffer followed by equilibration buffer containing 20 mM imidazole and 60 mM imidazole to baseline. MAT2A protein was eluted by the addition of buffer containing 250 mM imidazole, dialized into 50 mM NaCl, 50 mM Tris, pH 7.4, flash frozen in liquid nitrogen, and stored at −80° C. until use.

T1 sequence (P31153 whole entry): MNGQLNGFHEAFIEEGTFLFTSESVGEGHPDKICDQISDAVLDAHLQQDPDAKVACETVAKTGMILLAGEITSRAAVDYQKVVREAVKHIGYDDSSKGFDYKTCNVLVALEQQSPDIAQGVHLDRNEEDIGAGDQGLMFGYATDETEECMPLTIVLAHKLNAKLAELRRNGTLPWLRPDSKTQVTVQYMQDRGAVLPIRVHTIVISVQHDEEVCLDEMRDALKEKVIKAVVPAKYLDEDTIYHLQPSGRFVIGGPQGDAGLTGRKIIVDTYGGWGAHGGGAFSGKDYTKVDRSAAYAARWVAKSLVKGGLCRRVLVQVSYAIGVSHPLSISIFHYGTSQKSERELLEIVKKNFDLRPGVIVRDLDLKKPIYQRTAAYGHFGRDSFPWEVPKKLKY

In the case of `Cc1[nH]c2c(-c3ccccc3)c(-c3cccc(Cl)c3)nn2c(=O)c1-c1ccc2ncccc2c1` [Compound 346, 2-(3-chlorophenyl)-5-methyl-3-phenyl-6-(quinolin-6-yl)pyrazolo[1,5-a]pyrimidin-7(4H)-one], the IC50 is reported as 1000 to 10000 nM.
With `NCc1[nH]c2c(C3=CCCCC3)c(-c3ccccc3)nn2c(=O)c1-c1ccc2ncccc2c1` [Compound 233, 5-(aminomethyl)-3-(cyclohex-1-en-1-yl)-2-phenyl-6-(quinolin-6-yl)pyrazolo[1,5-a]pyrimidin-7(4H)-one] the IC50 was < 100 nM.
`COc1ccc(-c2c(Nc3cnncn3)[nH]c3c(C4=CCCCC4)c(-c4ccccc4)nn3c2=O)cc1` [Compound 162, 5-((1,2,4-triazin-5-yl)amino)-3-(cyclohex-1-en-1-yl)-6-(4-methoxyphenyl)-2-phenylpyrazolo[1,5-a]pyrimidin-7(4H)-one] was tested, and the IC50 was < 100 nM.
For `Cc1[nH]c2c(-c3ccccc3)c(-c3ccccc3)nn2c(=O)c1-c1ccc(O)c(F)c1` [Compound 238, 6-(3-fluoro-4-hydroxyphenyl)-5-methyl-2,3-diphenylpyrazolo[1,5-a]pyrimidin-7(4H)-one], the IC50 was < 100 nM.
In the case of `COc1ccc(-c2c(C(N)=O)[nH]c3c(-c4ccccc4)c(-c4ccccc4)nn3c2=O)cc1` [Compound 315, 6-(4-methoxyphenyl)-7-oxo-2,3-diphenyl-4,7-dihydropyrazolo[1,5-a]pyrimidine-5-carboxamide], the IC50 is reported as 100 to 1000 nM.
`CC(=O)NCc1[nH]c2c(-c3ccccc3)c(-c3ccccc3)nn2c(=O)c1-c1ccc2ncccc2c1` [Compound 228, N-((7-oxo-2,3-diphenyl-6-(quinolin-6-yl)-4,7-dihydropyrazolo[1,5-a]pyrimidin-5-yl)methyl)acetamide] was tested, and the IC50 was < 100 nM.
For `CNc1ncnc(Nc2[nH]c3c(-c4ccccc4)c(-c4ccccc4)nn3c(=O)c2-c2ccc(OC)cc2)n1` [Compound 135, 6-(4-methoxyphenyl)-5-((4-(methylamino)-1,3,5-triazin-2-yl)amino)-2,3-diphenylpyrazolo[1,5-a]pyrimidin-7(4H)-one], the IC50 was < 100 nM.
Compound `Cc1[nH]c2c(N3CCC(F)(F)C3)c(-c3ccccc3)nn2c(=O)c1-c1ccc2nccn2c1` [Compound 317, 3-(3,3-difluoropyrrolidin-1-yl)-6-(imidazo[1,2-a]pyridin-6-yl)-5-methyl-2-phenylpyrazolo[1,5-a]pyrimidin-7(4H)-one] has an IC50 of 100 to 1000 nM.
In the case of `COc1ccc(-c2c(Nc3ccc(O)cn3)[nH]c3c(-c4ccccc4)c(-c4ccccc4)nn3c2=O)cc1` [Compound 108, 5-(5-hydroxypyridin-2-ylamino)-6-(4-methoxyphenyl)-2,3-diphenylpyrazolo[1,5-a]pyrimidin-7(4H)-one], the IC50 is reported as < 100 nM.
For `Cc1[nH]c2c(C3=CCCCC3)c(-c3ccccc3)nn2c(=O)c1-c1ccc2nccnc2c1` [Compound 208, 3-(cyclohex-1-en-1-yl)-5-methyl-2-phenyl-6-(quinoxalin-6-yl)pyrazolo[1,5-a]pyrimidin-7(4H)-one], the IC50 was < 100 nM.
`COc1ccc(-c2c(Nc3cccc(C#N)n3)[nH]c3c(-c4ccccc4)c(-c4ccccc4)nn3c2=O)cc1` [Compound 111, 6-((6-(4-methoxyphenyl)-7-oxo-2,3-diphenyl-4,7-dihydropyrazolo[1,5-a]pyrimidin-5-yl)amino)picolinonitrile] was tested, and the IC50 was < 100 nM.
In the case of `O=C(CO)NCc1[nH]c2c(-c3ccccc3)c(-c3ccccc3)nn2c(=O)c1-c1ccc2ncccc2c1` [Compound 227, 2-hydroxy-N-((7-oxo-2,3-diphenyl-6-(quinolin-6-yl)-4,7-dihydropyrazolo[1,5-a]pyrimidin-5-yl)methyl)acetamide], the IC50 is reported as < 100 nM.
In the case of `Cc1[nH]c2c(N3CCCCC3)c(-c3ccccc3)nn2c(=O)c1N1CCC(O)CC1` [Compound 311, 6-(4-hydroxypiperidin-1-yl)-5-methyl-2-phenyl-3-(piperidin-1-yl)pyrazolo[1,5-a]pyrimidin-7(4H)-one], the IC50 is reported as 100 to 1000 nM.
Work on `Cc1[nH]c2c(N3CCCCC3)c(-c3ccccc3)nn2c(=O)c1-c1ccc(S(C)(=O)=O)cc1` [Compound 306, 5-methyl-6-(4-(methylsulfonyl)phenyl)-2-phenyl-3-(piperidin-1-yl)pyrazolo[1,5-a]pyrimidin-7(4H)-one] yielded an IC50 of 1000 to 10000 nM.
For `COc1ccc(-c2c(Nc3ncnc(N)n3)[nH]c3c(-c4ccccc4)c(-c4ccccc4)nn3c2=O)cc1` [Compound 134, 5-((4-amino-1,3,5-triazin-2-yl)amino)-6-(4-methoxyphenyl)-2,3-diphenylpyrazolo[1,5-a]pyrimidin-7(4H)-one], the IC50 was < 100 nM.
In the case of `Cc1[nH]c2c(N3CCCCC3)c(-c3ccccc3)nn2c(=O)c1-c1ccc2ncccc2c1` [Compound 206, 5-methyl-2-phenyl-3-(piperidin-1-yl)-6-(quinolin-6-yl)pyrazolo[1,5-a]pyrimidin-7(4H)-one], the IC50 is reported as < 100 nM.
In the case of `Cc1[nH]c2c(N3CCCCC3)c(-c3ccccc3)nn2c(=O)c1C1CC1` [Compound 298, 6-cyclopropyl-5-methyl-2-phenyl-3-(piperidin-1-yl)pyrazolo[1,5-a]pyrimidin-7(4H)-one], the IC50 is reported as 100 to 1000 nM.
For `Cc1[nH]c2c(C3=CCCC3)c(-c3ccccc3)nn2c(=O)c1-c1ccc2ncccc2c1` [Compound 215, 3-(cyclopent-1-en-1-yl)-5-methyl-2-phenyl-6-(quinolin-6-yl)pyrazolo[1,5-a]pyrimidin-7(4H)-one], the IC50 was < 100 nM.
With `COc1ccc(-c2c(Nc3ncnc(O)n3)[nH]c3c(-c4ccccc4)c(-c4ccccc4)nn3c2=O)cc1` [Compound 136, 5-((4-hydroxy-1,3,5-triazin-2-yl)amino)-6-(4-methoxyphenyl)-2,3-diphenylpyrazolo[1,5-a]pyrimidin-7(4H)-one] the IC50 was < 100 nM.
In the case of `O=C(NCc1[nH]c2c(-c3ccccc3)c(-c3ccccc3)nn2c(=O)c1-c1ccc2ncccc2c1)C(F)(F)F` [Compound 263, 2,2,2-trifluoro-N-((7-oxo-2,3-diphenyl-6-(quinolin-6-yl)-4,7-dihydropyrazolo[1,5-a]pyrimidin-5-yl)methyl)acetamide], the IC50 is reported as < 100 nM.
With `COc1ccc(-c2c(Nc3ccc(Cl)cn3)[nH]c3c(-c4ccccc4)c(-c4ccccc4)nn3c2=O)cc1` [Compound 106, 5-((5-chloropyridin-2-yl)amino)-6-(4-methoxyphenyl)-2,3-diphenylpyrazolo[1,5-a]pyrimidin-7(4H)-one] the IC50 was < 100 nM.
With `COc1ccc(-c2c(Nc3cnncn3)[nH]c3c(-c4ccccc4)c(-c4ccccc4)nn3c2=O)cc1` [Compound 133, 5-((1,2,4-triazin-5-yl)amino)-6-(4-methoxyphenyl)-2,3-diphenylpyrazolo[1,5-a]pyrimidin-7(4H)-one] the IC50 was < 100 nM.
In the case of `COc1ccc(-c2c(Nc3cc(N)ncn3)[nH]c3c(-c4ccccc4)c(-c4ccccc4)nn3c2=O)cc1` [Compound 117, 5-((6-aminopyrimidin-4-yl)amino)-6-(4-methoxyphenyl)-2,3-diphenylpyrazolo[1,5-a]pyrimidin-7(4H)-one], the IC50 is reported as < 100 nM.
With `COc1ccc(-c2c(CN)[nH]c3c(C4=CCCCC4)c(-c4ccccc4)nn3c2=O)cc1` [Compound 232, 5-(aminomethyl)-3-(cyclohex-1-en-1-yl)-6-(4-methoxyphenyl)-2-phenylpyrazolo[1,5-a]pyrimidin-7(4H)-one] the IC50 was < 100 nM.
For `COc1ccc(-c2c(Nc3cccc(F)n3)[nH]c3c(-c4ccccc4)c(-c4ccccc4)nn3c2=O)cc1` [Compound 110, 5-((6-fluoropyridin-2-yl)amino)-6-(4-methoxyphenyl)-2,3-diphenylpyrazolo[1,5-a]pyrimidin-7(4H)-one], the IC50 was < 100 nM.
For `Cc1[nH]c2c(C3=CCCCC3)c(-c3ccccc3)nn2c(=O)c1-c1ccc2ncccc2c1` [Compound 216, 3-(cyclohex-1-en-1-yl)-5-methyl-2-phenyl-6-(quinolin-6-yl)pyrazolo[1,5-a]pyrimidin-7(4H)-one], the IC50 was < 100 nM.
`COc1ccc(-c2c(Nc3cnc(N)cn3)[nH]c3c(C4=CCCCC4)c(-c4ccccc4)nn3c2=O)cc1` [Compound 160, 5-((5-aminopyrazin-2-yl)amino)-3-(cyclohex-1-en-1-yl)-6-(4-methoxyphenyl)-2-phenylpyrazolo[1,5-a]pyrimidin-7(4H)-one] was tested, and the IC50 was < 100 nM.
With `COc1ccc(-c2c(Nc3cnc(C#N)cn3)[nH]c3c(-c4ccccc4)c(-c4ccccc4)nn3c2=O)cc1` [Compound 129, 5-(6-(4-methoxyphenyl)-7-oxo-2,3-diphenyl-4,7-dihydropyrazolo[1,5-a]pyrimidin-5-ylamino)pyrazine-2-carbonitrile] the IC50 was < 100 nM.
With `COc1ccc(-c2c(Nc3ccn(COC(=O)[C@@H](N)C(C)C)n3)[nH]c3c(-c4ccccc4)c(-c4ccccc4)nn3c2=O)cc1` [Compound 201, (S)-(3-((6-(4-methoxyphenyl)-7-oxo-2,3-diphenyl-4,7-dihydropyrazolo[1,5-a]pyrimidin-5-yl)amino)-1H-pyrazol-1-yl)methyl 2-amino-3-methylbutanoate] the IC50 was < 100 nM.
